In patent publication US6835563B1, “Compositions and methods for increasing cholesterol efflux and raising HDL ATP binding cassette transporter protein ABC1” (CV Therapeutics, priority 1999, dated 2004):

Key:
ABC1 protein = assay: Cell-surface ABC1 protein by biotin labeling and immunoprecipitation; type: cell-based, human; settings: serum deprivation and cholesterol-loading (30 μg/ml, 48 h), normal and TD1 cells
Experimental: Cell-surface labeling and immunoprecipitation was used to determine whether increased expression of ABC1 protein in the plasma membrane is correlated with an increase in cholesterol efflux (FIG. 10). The relative amount of ABC1 on the cell surface was determined by cross-linking surface proteins on intact cells with the membrane-impermeable agent sulfo-NHS-biotin, followed by the steps of membrane solubilization, immunoprecipitation with ABC1 antibody, SDS-PAGE, and detection with streptavidin.
Both normal and TD1 cells were cultured under control conditions and conditions known to increase apolipoprotein-mediated cholesterol efflux (Oram, et al., J. Lip. Res., 40: 1769-1781 (1999)). […] Cholesterol-loaded cells were grown to confluence in DMEM/10% FBS and then incubated in DMEM/BSA for 48 hours with 30 μg/ml cholesterol plus 18 hours with no additives (cholesterol). […]
Detection of ABC1 Protein: The eluted biotinylated proteins were subjected to SDS-PAGE (6% gel; 150V, 5 hours) and transferred to nitrocellulose membrane (200 mA, 18 hours). The nitrocellulose was probed with streptavidin-horse radish peroxidase (Amersham Pharmacia, Piscataway, N.J.; Cat. #RPN 1231) diluted 300-fold and detected by enhanced chemiluminescence labeling (ECL) according to vendor's protocol (Amersham Pharmacia, Piscataway, N.J.). […]

normal fibroblasts = assay: HDL- and apo A-I-mediated [3H]cholesterol efflux from normal fibroblasts; type: cell-based, human; settings: HDL 40 μg protein/ml or apo A-I 10 μg/ml, up to 48 h
Experimental: (§1) Cell Cultures: Human fibroblasts were obtained from skin explants from two normal subjects (NL1) and three unrelated patients with Tangier disease (TD). TD1 cells were obtained from a person with extremely low plasma HDL cholesterol and apo A-I levels and clinical symptoms typical of Tangier disease. […] TD3 cells were obtained from a person with Tangier disease who presented with orange tonsil remnants, asymmetrical motor neuropathy, plasma HDL cholesterol of 5 mg/dL, and LDL cholesterol of 16 mg/dL (Lawn et al., J. Clin. Invest., 104, R25-R31 (1999)). The normal cells and TD subject cells were immortalized as described in Oram et al., J. Lipid. Res., 40: 1769-1781 (1999). Briefly, the cells were transfected with amphotropic retroviruses containing vectors with inserts of human papillomavirus 16-oncogenes E6 and E7 and a neomycin resistance selectable marker. Control cells were infected with vector alone (mock-infected). Pooled cell populations were selected in the presence of G418 for two passages, after which G418 was excluded from the medium. Fibroblasts were used between the fifth and sixteenth passage (primary) or sixth and fourteenth passage (immortalized). The immortalized normal and TD cells were seeded into 16-mm wells or 35-mm dishes and grown to confluence in. Dulbecco's modified. Eagle's medium (DMEM) plus 10% fetal bovine serum (FBS) before experimental use. […]

TD fibroblasts = assay: HDL- and apo A-I-mediated [3H]cholesterol efflux from Tangier disease fibroblasts; type: cell-based, human; settings: HDL 40 μg protein/ml or apo A-I 10 μg/ml, up to 48 h
Experimental: as §1

ABC1 mRNA [1] = assay: ABC1 mRNA by quantitative RT-PCR in normal fibroblasts; type: cell-based, human; settings: apo A-I 10 μg/ml 18-24 h
Experimental: (§2) To determine whether ABC1 plays a rate-limiting role in cellular sterol efflux, the synthesis of ABC1 was measured under various cellular conditions related to cholesterol efflux processes. Specifically, normal fibroblasts and TD fibroblasts were individually exposed to conditions of excess cAMP, cholesterol, or Apo A-I. Cell cultures of normal skin fibroblasts and TD1 and TD2 fibroblasts were prepared as described in Example 1. The level of ABC1 mRNA was measured by RT-PCR. Cell cultures: Immortalized cell cultures of normal skin fibroblasts and TD1 and TD2 fibroblasts were prepared as described in Example 1. Cells were grown to subconfluence in DMEM/10% FBS before replacement with DMEM/BSA and the indicated additive for 24 or 48 hours. RNA was prepared as described in Example 2. RT-PCR: Quantitative PCR was carried out using the GeneAmp 5700 Sequence. Detection System (Perkin-Elmer Applied Biosystems, Foster City, Calif.). Briefly, 500 ng of DNase-treated mRNA was reverse transcribed using random hexamer primers at 2.5 μM. Approximately 5% of this reaction was amplified by PCR using the SYBR green core kit (PE. Applied Biosystems, Foster City, Calif.; Cat. #4304886) and human ABC1 primers […] […] The mRNA in each sample was quantitated by detecting the increase in fluorescence caused by SYBR green binding to the double-stranded amplification product generated during each PCR cycle. […]

ABC1 mRNA [2] = assay: ABC1 mRNA by quantitative RT-PCR in TD1 and TD2 fibroblasts; type: cell-based, human; settings: apo A-I 10 μg/ml
Experimental: as §2

RAW 264.7 cells = assay: Apo A-I-mediated cholesterol efflux from cholesterol-loaded RAW 264.7 macrophage cells; settings: control cells, apo A-I only
Experimental: Assay to Measure Lipid Efflux: Apo AI-mediated efflux of cholesterol and, phospholipid was assayed according to the method described in. […] RAW 264.7 cells were cholesterol-loaded through the scavenger receptor by 24-hour incubation with acetylated LDL as described in Smith et al., J. Biol. Chem., 271:30647-30655 (1996). Briefly, RAW 264.7 cells in 24-well dishes were cholesterol-loaded and labeled overnight in 0.5 ml of DMEM supplemented with 50 μl/ml 1M glucose, 10 μl/ml 200 mM glutamine and 2% BSA and with 50 μg/ml acetylated low density lipoprotein (AcLDL) and [^3H]-cholesterol which had been pre-incubated for 30 minutes at 37° C. with AcLDL to yield a final concentration of 0.33 μCi/ml [^3H]-cholesterol. Cells were subsequently washed five times with PBS containing 1% BSA and incubated overnight (16-18 hours) in DMEM/BSA to allow for equilibrium of cholesterol pools. After equilibrium of cholesterol pools, cells were rinsed four times with PBS/BSA and incubated for one hour at 37° C. with DMEM/BSA before the efflux incubations. Efflux medium (DMEM/BSA) containing either albumin alone (control), albumin plus HDL (40 μg protein/ml), or albumin plus apo A-I (10 μg/ml, Biodesign International, Kennebunk, Me.) was added and the cells were incubated for 4, 24, or 48 hours. […] The radioactivity found in the culture medium was measured by scintillation counting after a 15-minute centrifugation at 12,000 g. The radioactivity in the cells was measured by scintillation counting after solubilization in 0.5 ml of 0.2M NaOH (Smith et al., J. Biol. Chem., 271:30647-30655 (1996)) or extraction in hexane:isopropanol (3:2 v/v) as described in Francis, et al., J. Clin. Invest., 96, 78-87 (1995). […] The efflux of cholesterol or phospholipid was expressed as the percentage of tritiated lipid counts in the medium over the total tritiated lipid counts recovered from the cells and medium (cpm medium/cpm (medium+lysate)×100).
Briefly, RAW 264.7 cells suspended at a density of 1.25×10^5 cells/ml were grown in DMEM/10% FBS supplemented with pyruvate. After 24 hours, the medium was removed and replaced with DMEM/BSA plus radiolabeled cholesterol (1 μCi/ml ^3[H]-cholesterol) and 50 μg/ml of acetylated LDL for 24 hours. The cells were then maintained for 24 hours in equilibrium medium consisting of DMEM/BSA plus either apo A-I alone (20 μg/ml), apo A-I and 8-bromo 3′, 5′ cAMP (1 mM) or apo A-I and rolipram (50 μM).

## CC(C)CCC[C@@H](C)[C@H]1CC[C@H]2[C@@H]3CC=C4C[C@@H](O)CC[C@]4(C)[C@H]3CC[C@]12C [cholesterol]
ABC1 protein
  cell-surface expression of ABC1: markedly increased

## apo A-I: apolipoprotein cholesterol acceptor (Biodesign International)
Normal fibroblasts
  efflux of [3H]-cholesterol on addition to albumin medium: promoted the efflux
TD fibroblasts
  efflux of [3H]-cholesterol on addition to albumin medium: little or no effect
ABC1 mRNA [1]
  ABC1 mRNA expression on subsequent exposure of cholesterol-loaded cells: marked decrease
ABC1 mRNA [2]; TD1 cells
  ABC1 expression on exposure of cholesterol-loaded cells: did not alter ABC1 expression
ABC1 mRNA [2]; TD2 cells
  ABC1 expression on exposure of cholesterol-loaded cells: slightly increased ABC1 expression
RAW 264.7 cells
  cholesterol efflux: 1890 c.p.m.
